Measurements taken from paper PMC10116469 (Nature Communications, 2023).

Assays:
[1] = target: MPXV VP39 2′-O-RNA methyltransferase (Monkeypox virus, UniProt A0A7H0DN74); experiment: biochemical
[2] = system: SARS-CoV-2 nsp14 N7-MTase; details: cited from earlier work
[3] = IC50, individual fit of data set 1
[4] = IC50, individual fit of data set 2
[5] = IC50 average (averaged IC50 values from independent measurement)

Sequence of MPXV VP39 2′-O-RNA methyltransferase (A0A7H0DN74 whole entry, looked up): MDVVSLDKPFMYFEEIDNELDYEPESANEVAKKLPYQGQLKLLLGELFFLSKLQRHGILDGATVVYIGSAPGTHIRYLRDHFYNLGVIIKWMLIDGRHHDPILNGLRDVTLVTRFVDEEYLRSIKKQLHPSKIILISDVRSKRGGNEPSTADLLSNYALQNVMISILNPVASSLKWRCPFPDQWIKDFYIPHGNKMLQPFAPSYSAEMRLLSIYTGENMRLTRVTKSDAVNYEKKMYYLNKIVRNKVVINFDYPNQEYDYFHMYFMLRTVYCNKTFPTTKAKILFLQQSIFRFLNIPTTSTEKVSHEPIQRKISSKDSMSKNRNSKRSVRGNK

SMILES	HillSlope, individual fit of data set 1 [1]	HillSlope, individual fit of data set 2 [1]	LogIC50, fit of all data points [1]	LogIC50, individual fit of data set 1 [1]	LogIC50, individual fit of data set 2 [1]	IC50 ([1]; IC50 (mean ± SEM)) [nM]	IC50 ([1]; IC50, fit of all data points) [nM]	IC50 [1, 3] [nM]	IC50 [1, 4] [nM]	IC50 [1, 5] [nM]	inhibition of SARS-CoV-2 nsp14 [2]	IC50 ([1]; IC50) [nM]
Nc1ncnc2c1c(C#Cc1ccccc1)cn2[C@@H]1O[C@H](CSCC[C@H](N)C(=O)O)[C@@H](O)[C@H]1O [TO427]	-1.507	-1.605	-0.9412	-0.9395	-0.9422	115 ± 0.4	114	115	114	115		
Nc1ncnc2c1c(C#Cc1cccc3ccccc13)cn2[C@@H]1O[C@H](CSCC[C@H](N)C(=O)O)[C@@H](O)[C@H]1O [TO494]	-1.676	~ -5.860	-0.9386	-1.017	~ -0.7109		115	96.1		145		
Nc1ncnc2c1c(C#Cc1nc3ccccc3[nH]1)cn2[C@@H]1O[C@H](CSCC[C@H](N)C(=O)O)[C@@H](O)[C@H]1O [TO500]	-1.441	-1.353	-0.7728	-0.7814	-0.7635		169	165	172	169		
Nc1ncnc2c1c(C#Cc1ccc3ccccc3c1)cn2[C@@H]1O[C@H](CSCC[C@H](N)C(=O)O)[C@@H](O)[C@H]1O [TO504]	-1.768	-1.833	-1.107	-1.131	-1.08		78.1	73.9	83.2	79		
Nc1ncnc2c1c(C#Cc1cnc3ccccc3c1)cn2[C@@H]1O[C@H](CSCC[C@H](N)C(=O)O)[C@@H](O)[C@H]1O [TO507]	-1.446	-1.972	-0.9412	-0.9877	-0.8836		114	103	131	117	nanomolar inhibitors	
CCc1cn([C@@H]2O[C@H](CSCC[C@H](N)C(=O)O)[C@@H](O)[C@H]2O)c2ncnc(N)c12 [TO1111]	-1.277	-1.517	-1.058	-1.122	-0.9871		87.5	75.5	103	89		
C=Cc1cn([C@@H]2O[C@H](CSCC[C@H](N)C(=O)O)[C@@H](O)[C@H]2O)c2ncnc(N)c12 [TO1116]	-0.9545	-1.033	-0.836	-0.8617	-0.8127		146	138	154	146		
Nc1ncnc2c1c(I)cn2[C@@H]1O[C@H](CSCC[C@H](N)C(=O)O)[C@@H](O)[C@H]1O [TO1119]	-1.304	-1.575	-0.8937	-0.9194	-0.8669		128	120	136			128
Nc1ncnc2c1ncn2[C@@H]1O[C@H](C[C@@H](N)CC[C@H](N)C(=O)O)[C@@H](O)[C@H]1O [sinefungin, reference compound]	-0.961	-0.8657	0.3693	0.3792	0.3552		2340	2390	2270	2330		2300
